The Deep4Chem optical property database
Values belong to the molecule of their own block, whether it stands above or below them.

Assay: solvent given as SMILES

Compound: c1cnc2c(c1)c1nc(-c3ccc(-c4nc5c6cccnc6c6ncccc6c5[nH]4)cc3)[nH]c1c1cccnc12
absorption maximum (in CS(C)=O): 398 nm

Compound: COc1ccc2c(c1)sc1[n+]2[B-](F)(F)OC(c2ccc(N(C)C)cc2)=N1
absorption maximum (in C1CCOC1): 430 nm
absorption maximum (in CC#N): 426 nm
absorption maximum (in CC(C)=O): 431 nm
absorption maximum (in Cc1ccccc1): 427 nm
absorption maximum (in ClCCl): 430 nm

Compound: Cc1ccc(C2=C3C=CC(C#Cc4ccccc4)=[N+]3[B-](F)(F)n3c(Cl)ccc32)cc1
absorption maximum (in C1CCCCC1): 564 nm
absorption maximum (in C1CCOC1): 560 nm
absorption maximum (in C1COCCO1): 562 nm
absorption maximum (in CCOC(C)=O): 558 nm
absorption maximum (in CO): 556 nm
absorption maximum (in Cc1ccccc1): 566 nm
absorption maximum (in ClC(Cl)Cl): 564 nm

Compound: CCC1=C(C)C2=Cc3cccn3[B-](F)(F)[N+]2=C1C
absorption maximum (in C1CCCCC1): 512.5 nm
absorption maximum (in CC(C)=O): 503.5 nm
absorption maximum (in CCO): 505.5 nm
absorption maximum (in CCOC(C)=O): 505 nm
absorption maximum (in CO): 504.5 nm
absorption maximum (in OCC(F)(F)F): 494.5 nm

Compound: c1ccc(N(c2ccccc2)c2ccc(-c3ccc4c(c3)C3(c5ccccc5Sc5ccccc53)c3cc(-c5ccc(N(c6ccccc6)c6ccccc6)cc5)ccc3-4)cc2)cc1
absorption maximum (in ClCCl): 375 nm

Compound: N#Cc1c(-n2c3ccccc3c3ccccc32)c(-n2c3ccccc3c3ccccc32)c(-n2c3ccccc3c3ccccc32)c(-n2c3ccccc3c3ccccc32)c1-n1c2ccccc2c2ccccc21
absorption maximum (in Cc1ccccc1): 402.99 nm

Compound: BrCCCCCCCCCCCCOc1cc2ccc3cccc4ccc(c1)c2c34
absorption maximum (in Cc1ccccc1): 384 nm

Compound: CCCCCCCCCCOc1ccc(C#Cc2cc3c(C#Cc4ccc(OCCCCCCCCCC)cc4)c(C#Cc4ccc(OCCCCCCCCCC)cc4)c4cc(C#Cc5ccc(OCCCCCCCCCC)cc5)cc5c(C#Cc6ccc(OCCCCCCCCCC)cc6)c(C#Cc6ccc(OCCCCCCCCCC)cc6)c(c2)c3c45)cc1
absorption maximum (in ClCCl): 421 nm

Compound: CCCCCCn1c(=O)c2c3nc4ccccc4nc3c3c(=O)n(CCCCCC)c(=O)c3c2c1=O
absorption maximum (in ClCCl): 404 nm

Compound: CC(C)(C)c1ccc2c(c1)c1cc(C(C)(C)C)ccc1n2-c1ccc(N(c2ccc(-c3ccc(N(c4ccc(-n5c6ccc(C(C)(C)C)cc6c6cc(C(C)(C)C)ccc65)cc4)c4ccc(-n5c6ccc(C(C)(C)C)cc6c6cc(C(C)(C)C)ccc65)cc4)cc3)cc2)c2ccc(-n3c4ccc(C(C)(C)C)cc4c4cc(C(C)(C)C)ccc43)cc2)cc1
absorption maximum (in ClCCl): 349 nm

Compound: CCCCCCCCCCCCCCCCN(CCCCCCCCCCCCCCCC)c1ccc(/C=C/c2cc[n+](Cc3cc(C[n+]4ccc(/C=C/c5ccc(N(CCCCCCCCCCCCCCCC)CCCCCCCCCCCCCCCC)cc5)cc4)cc(C[n+]4ccc(/C=C/c5ccc(N(CCCCCCCCCCCCCCCC)CCCCCCCCCCCCCCCC)cc5)cc4)c3)cc2)cc1
absorption maximum (in C1COCCO1): 482 nm
absorption maximum (in CC(C)O): 506 nm
absorption maximum (in CCCCCC): 481 nm
absorption maximum (in CCCCCCCCO): 498 nm
absorption maximum (in CCCCO): 507 nm
absorption maximum (in CCCO): 508 nm
absorption maximum (in CCO): 508 nm
absorption maximum (in CO): 509 nm
absorption maximum (in CS(C)=O): 486 nm
absorption maximum (in Cc1ccc(C)cc1): 483 nm
absorption maximum (in Cc1ccccc1): 483 nm
absorption maximum (in ClC(Cl)Cl): 514 nm
absorption maximum (in ClCCl): 516 nm
absorption maximum (in c1ccccc1): 484 nm

Compound: CN(C)c1ccc(C#Cc2cc(C#Cc3ccc(N(C)C)cc3)c3ccc4c(C#Cc5ccc(N(C)C)cc5)cc(C#Cc5ccc(N(C)C)cc5)c5ccc2c3c54)cc1
absorption maximum (in ClCCl): 508 nm

Compound: c1ccc(-c2nc(-c3ccccc3)nc(-c3ccc(N4c5ccccc5C5(c6ccccc6-c6ccccc65)c5ccccc54)cc3)n2)cc1
absorption maximum (in Cc1ccccc1): 399.05 nm

Compound: CC(C)(C)c1cc(-c2c3cccc4c5cccc6c(-c7cc(C(C)(C)C)cc(C(C)(C)C)c7)c7cccc8c9cccc2c9c(c34)c(c65)c78)cc(C(C)(C)C)c1
absorption maximum (in Cc1ccccc1): 687 nm

Compound: CC(C)[Si](C#Cc1c2ccccc2c(C#Cc2c3ccccc3c(C#Cc3c4ccccc4c(C#Cc4c5ccccc5c(C#Cc5c6ccccc6c(C#Cc6c7ccccc7c(C#C[Si](C(C)C)(C(C)C)C(C)C)c7ccccc67)c6ccccc56)c5ccccc45)c4ccccc34)c3ccccc23)c2ccccc12)(C(C)C)C(C)C
absorption maximum (in Cc1ccccc1): 589 nm

Compound: C(=C\c1c[nH]c2ccccc12)/c1cc[n+]2ccc(/C=C/c3c[nH]c4ccccc34)cc2c1
absorption maximum (in CO): 489 nm

Compound: C(=C\c1cccc2ccccc12)/c1ccc(Oc2ccc3ccccc3c2-c2c(Oc3ccc(/C=C/c4cccc5ccccc45)cc3)ccc3ccccc23)cc1
absorption maximum (in ClCCl): 334 nm

Compound: CC1(C)c2ccccc2N(c2ccc(-c3nc(-c4ccccn4)n(-c4ccc(N5c6ccccc6C(C)(C)c6ccccc65)cc4)n3)cc2)c2ccccc21
absorption maximum (in ClCCl): 375 nm

Compound: N#Cc1cc(-n2c3ccccc3c3ccccc32)nc(-n2c3ccccc3c3ccccc32)n1
absorption maximum (in Cc1ccccc1): 342 nm

Compound: CC(C)(C)c1ccc(Oc2cc3c4c(cc(Oc5ccc(C(C)(C)C)cc5)c5c6c(Oc7ccc(C(C)(C)C)cc7)cc7c8c(cc(Oc9ccc(C(C)(C)C)cc9)c(c2c45)c86)C(=O)OC7=O)C(=O)OC3=O)cc1
absorption maximum (in ClC(Cl)Cl): 581 nm

Compound: CCCCn1c2c(-c3ccc(N(c4ccccc4)c4ccccc4)cc3)cc(C#N)cc2c2cc(C#N)cc(-c3ccc(N(c4ccccc4)c4ccccc4)cc3)c21
absorption maximum (in ClCCl): 351 nm

Compound: CCCCCCCCOc1ccc(-c2c3c4n(c(-c5ccc(OCCCCCCCC)cc5)c3c3n2[B-](F)(F)[n+]2ccccc2N=3)[B-](F)(F)[n+]2ccccc2N=4)cc1
absorption maximum (in ClC(Cl)Cl): 638 nm

Compound: CCC1=C(C)C2=C(c3c4ccccc4c(-c4ccccc4)c4ccccc34)c3c(C)c(CC)c(C)n3[B-](F)(F)[N+]2=C1C
absorption maximum (in CC#N): 528 nm
absorption maximum (in CCCCCC): 531 nm
absorption maximum (in CCO): 529 nm
absorption maximum (in CN(C)C=O): 530 nm
absorption maximum (in Cc1ccccc1): 534 nm
absorption maximum (in ClCCl): 532 nm

Compound: CCC1=C(C)C2=Cc3cc4c(cc3B(O)N2C1=O)OCO4
absorption maximum (in CC#N): 383 nm
absorption maximum (in CO): 381 nm
absorption maximum (in CS(C)=O): 384 nm
absorption maximum (in ClC(Cl)Cl): 389 nm

Results, then the molecule that gave them:

absorption maximum (in CS(C)=O): 399 nm
Compound: O=c1c2cc(S(=O)(=O)Cl)ccc2[nH]c2ccc(S(=O)(=O)Cl)cc12

absorption maximum (in ClCCl): 365 nm
Compound: NC1=N/C(=N\c2ccccn2)c2cccc3cccc1c23

absorption maximum (in ClCCl): 312 nm
Compound: C(=C\c1cc(/C=C/c2ccccc2)nc(/C=C/c2ccccc2)n1)/c1ccccc1

absorption maximum (in CC#N): 340 nm
absorption maximum (in CCCCCC): 337 nm
absorption maximum (in CCO): 343 nm
absorption maximum (in CCOC(C)=O): 340 nm
absorption maximum (in CO): 343 nm
absorption maximum (in OCC(F)(F)F): 344 nm
Compound: COc1ccc2cc3c(C)cc(=O)oc3cc2c1

absorption maximum (in C1CCCCC1): 586.5 nm
absorption maximum (in CCOC(C)=O): 582 nm
absorption maximum (in CO): 580.5 nm
Compound: Cc1ccccc1C1=C2C=c3c(oc4ccccc34)=[N+]2[B-](F)(F)n2c1cc1c3ccccc3oc12

absorption maximum (in CS(C)=O): 376 nm
Compound: Cc1ccc(N/C=C/C=[NH+]c2ccc(C)cc2)cc1

absorption maximum (in CCO): 330 nm
Compound: COC(=O)C(CCCCNC(=O)CCNc1cccc2ccccc12)NC(C)=O (stereo not drawn)

absorption maximum (in C1CCOC1): 341 nm
Compound: c1ccc(-c2ccc(-c3ccccc3)s2)cc1

absorption maximum (in ClCCl): 403 nm
Compound: CCCCCCN1C(=O)c2cccc3c(-c4ccc(-c5cc(-c6ccc(OC)cc6)n(-c6ccccc6)n5)s4)ccc(c23)C1=O

absorption maximum (in CC#N): 367 nm
absorption maximum (in CCCCCC): 344 nm
absorption maximum (in CO): 365 nm
absorption maximum (in ClC(Cl)Cl): 351 nm
Compound: c1cc2ccc3cccc4c(-c5cc(-c6nccs6)nc(-c6nccs6)c5)cc(c1)c2c34

absorption maximum (in CCCCCC): 570 nm
absorption maximum (in ClCCl): 570 nm
Compound: CC(C)[Si](C#Cc1c2ccccc2c(C#C[Si](C(C)C)(C(C)C)C(C)C)c2nc3ccccc3nc12)(C(C)C)C(C)C

absorption maximum (in C1CCCCC1): 470 nm
Compound: C[Si](C)(C)C#CC#Cc1ccc2c3cccc4cccc(c5cccc1c52)c43

absorption maximum (in C1CCOC1): 443 nm
Compound: CCCCCOc1cc2oc(=O)c3c4ccc(O)cc4c4ccc5cccc6c(c1)c2c3c4c56

absorption maximum (in ClCCl): 290 nm
Compound: O=P1(c2ccccc2)c2ccccc2-n2cccc21 (stereo not drawn)

absorption maximum (in C1CCOC1): 407 nm
absorption maximum (in CCCCCC): 399 nm
absorption maximum (in ClC(Cl)Cl): 402 nm
absorption maximum (in ClCCl): 410 nm
Compound: O=C1c2cccc3c(-n4c5ccccc5c5ccccc54)ccc(c23)C(=O)N1C1CCCCC1

absorption maximum (in CS(C)=O): 403 nm
absorption maximum (in O): 394 nm
Compound: CCCCCn1c2ccccc2c(=O)c2ccccc21

absorption maximum (in ClCCl): 352 nm
Compound: COc1cc(/C=C/c2ncc(-c3ccncc3)o2)cc(OC)c1OC

absorption maximum (in CCCCCCC): 383 nm
Compound: c1ccc2c3c(ccc2c1)-c1cccc2c1c-3cc1ccccc12

absorption maximum (in ClCCl): 342 nm
Compound: CC1(C)c2ccccc2N(c2ccc(-c3nc(-c4ccccn4)n(-c4ccccc4)n3)cc2)c2ccccc21

absorption maximum (in ClCCl): 373 nm
absorption maximum (in O): 326 nm
Compound: O=Cc1ccc(-c2ccc(-c3nc4ccccc4s3)c(O)c2)o1

absorption maximum (in ClCCl): 523 nm
Compound: Cc1ccc(N(c2ccc(C)cc2)c2ccc(Oc3nnc(Cl)nn3)cc2)cc1

absorption maximum (in CC#N): 427 nm
Compound: c1cc2c3c(cccc3c1)C(N1CCOCCOCCOCCOCC1)=N2

absorption maximum (in C1CCOC1): 353 nm
absorption maximum (in C1COCCO1): 353 nm
absorption maximum (in CC#N): 350 nm
absorption maximum (in CCOC(C)=O): 356 nm
absorption maximum (in CN(C)C=O): 341 nm
absorption maximum (in ClC(Cl)Cl): 357 nm
Compound: O=C(O)c1ccccc1Nc1ccccc1

absorption maximum (in ClCCl): 367 nm
Compound: COc1ccc(N(c2ccc(OC)cc2)c2ccc(-c3ccc(-c4ccc5nc6ccccc6c(=O)n5c4)cc3)cc2)cc1

absorption maximum (in ClCCl): 333 nm
Compound: C[Si]1(C)C(c2ccccc2)=Cc2ccccc21

absorption maximum (in CC1CCCCC1): 307.12 nm
absorption maximum (in CC#N): 302.86 nm
absorption maximum (in CO): 306.08 nm
Compound: COC(=O)C(Cc1ccc2oc(-c3ccncc3)nc2c1)NC(=O)OC(C)(C)C (stereo not drawn)

absorption maximum (in CCOC(C)=O): 427 nm
Compound: CCN1CCN(c2ccc(/N=N/c3cc(C(F)(F)F)cc(C(F)(F)F)c3)cc2)CC1

absorption maximum (in ClCCl): 525 nm
Compound: CCN1c2ccc(C3=CC(c4ccccc4)=[O+][B-](F)(F)O3)cc2Sc2cc(C3=CC(c4ccccc4)=[O+][B-](F)(F)O3)ccc21

absorption maximum (in ClCCl): 554 nm
Compound: CC1=C(I)C(C)=[N+]2C1=C(c1c(-c3ccccn3)nc3ccccn13)c1c(C)c(I)c(C)n1[B-]2(F)F

absorption maximum (in C1CCCCC1): 294 nm
Compound: CCCC[Si](C)(C)c1cccc2ccccc12
